Read-outs that look alike come from different tables or passages of the source.
What was measured:
[1] = biological target: T1, cardiac myosin SII (Bos taurus, UniProt Q9BE39); assay: Inhibition of hydrolysis of ATP by cardiac myosin SII; assay type: biochemical; conditions: 100 μM compound
T1 construct: purchased Cytoskeleton #MYO3-A
Protocol: The purpose of this test was to evaluate the ability of compounds to inhibit the hydrolysis of ATP by cardiac myosin SII. The determination method was as follows: • 1. Solution formulation: • Preformed F-actin filaments (#AKF99-B, Cytoskeleton) were diluted to 1 mg/mL with Reaction buffer (15 mM Tris-HCL. PH7.5+10 mM KCl+0.1 mM EGTA+2 mM MgCl2); • Cardiac Muscle myosin (#MYO3-A, Cytoskeleton) was diluted to 1 mg/mL with Resuspension buffer (15 mM Tris-HCL, PH7.5+0.2M KCl+1 mM MgCl2); • ATP (#BSA04-001, Cytoskeleton) was diluted to 3 mM working solution with 15 mM Tris-HCL (PH=7.5); • 2. Formulation of working solution of compounds: the final compound concentration was 100 μM • 3. Experimental steps: • adding 10 μL of compound working solution+12 μL of Preformed F-actin filaments+3 μL of Cardiac Muscle myosin to the compound wells; • adding 10 μL of reaction buffer containing DMSO+12 μL Preformed F-actin filaments +3 μL Cardiac Muscle myosin to positive control wells; • adding 10 μL of reaction buffer containing DMSO+12 μL Preformed F-actin filaments +3 μL Resuspension buffer to negative control wells; • adding 5 μL of 3 mM ATP working solution to all test wells to start the reaction, gently mixing and incubating at 37° C. for 2 h; • after the reaction was completed, taking 6 μL of reaction liquid, adding 24 μL of reaction buffer for 5-fold dilution, then detecting the content of the product Pi with a phosphate kit (#BK054, Cytoskeleton); • adding a sample to Pi standard wells according to the instructions; • adding 70 μL of CytoPhos Reagent (#BK054, Cytoskeleton) to each well and incubating at room temperature for 10 min before detection. • 4. Detection: • the OD value of each well was detected at 650 nm. The standard curve was fitted according to Pi standard concentration and OD value, and the Pi concentration of each test well was obtained. Inhibition (%)=(positive control well−test well)/positive control well*100%.

[2] = biological target: T2, smooth muscle myosin S1 (Gallus gallus, UniProt P10587); assay: Inhibition of hydrolysis of ATP by smooth muscle myosin S1 fragments; assay type: biochemical; conditions: 100 μM compound
T2 construct: purchased Cytoskeleton #CS-MYS05
Protocol: The purpose of this test was to evaluate the ability of compounds to inhibit the hydrolysis of ATP by smooth muscle myosin Si fragments. The determination method was as follows: • 1. Solution formulation • F-actin polymer: Cardiac Actin powder (#CS-AD99, Cytoskeleton) was dissolved in a buffer (5 mM Pipes-KOH solution, PH=7.0, containing 100 μM ATP and 500 μM DTT) to form a 2 mg/mL solution and the solution was left at room temperature for 30 min; then 2 mM MgCl2 and 2 mM EGTA were added and the obtained system was left at room temperature for 40 min; • Smooth muscle SI fragment (#CS-MYS05, Cytoskeleton) was diluted with a pre-cooled PM12 buffer containing 1 mM DTT (12 mM Pipes-KOH solution, PH=7.0, containing 2 mM MgCl2) to form a 0.7 mg/mL solution; • ATP (#BSA04-001, Cytoskeleton) was diluted to 5 mM working solution with 15 mM Tris-HCL (PH=7.5); • 2. […] Experimental steps: • adding 10 μL of compound working solution+6 μL of F-actin polymer+4 μL of Smooth muscle Si fragment solution to the compound wells; • adding 10 μL of PM12 buffer containing DMSO+6 μL of F-actin polymer+4 μL of Smooth muscle S1 fragment solution to positive control wells; • adding 10 μL of PM12 buffer containing DMSO+6 μL of F-actin polymer+4 μL of PM12 buffer to negative control wells; • adding […] of 5 mM ATP working solution to all test wells to start the reaction, gently mixing and incubating at 37° C. for 20 min; • after the reaction was completed, taking 6 μLL of reaction liquid, adding 24 μL of PM12 buffer for 5-fold dilution, then detecting the content of the product Pi with a phosphate kit (#BK054, Cytoskeleton); • adding a standard according to the instructions, adding 70 μL of CytoPhos Reagent (#BK054, Cytoskeleton) to all wells and incubating at room temperature for 10 min before detection. • 4. Detection: • the OD value of each well was detected at 650 nm. The standard curve was fitted according to Pi standard concentration and OD value, and the Pi concentration of each test well was obtained. Inhibition (%)=(positive control well−test well)/positive control well*100%.

[3] = tested on: rabbit skeletal muscle myosin; assay: Inhibition of hydrolysis of ATP by rabbit skeletal muscle myosin; assay type: biochemical
Protocol: The purpose of this test was to evaluate the ability of compounds to inhibit the hydrolysis of ATP by rabbit skeletal muscle myosin. The determination method was as follows:
• Preformed F-actin filaments (#AKF99-B, Cytoskeleton) were diluted to 1 mg/mL with Reaction buffer (25 mM Tris-HCL, pH 7.5+35 mM KCl+0.1 mM EGTA+1 mM MgCl2); • Rabbit myosin (#MYO2-A, Cytoskeleton) was diluted to 0.1 mg/mL with Resuspension buffer (15 mM Tris-HCL, PH7.5+0.2 M KCl+1 mM MgCl2); • ATP (#BSA04-001, Cytoskeleton) was diluted to 3 mM working solution with 15 mM Tris-HCL (PH=7.5);
• adding 13 μL reaction buffer+12 μL F-actin to actin control wells; • adding 10 μL reaction buffer+12 μL F-actin+3 μL myosin II to positive control wells; • adding 10 μL of compound working solution+12 μL of F-actin+3 μL of myosin II to the compound wells; • adding 5 μL of ATP working solution to all test wells to start the reaction, and simultaneously adding a sample to the Pi standard wells according to the instruction (#BK054, Cytoskeleton); • gently mixing and accurately incubating at 37° C. for 60 min; • adding 70 μL of CytoPhos Reagent (#BK054, Cytoskeleton) to each well and incubating for 10 min to stop the reaction.
• the OD value of each well was detected at 650 nm using the endpoint method. The standard curve was fitted according to Pi concentration and OD value, and the Pi concentration of each test well was obtained. Inhibition (%)=(Pi positive control well-Pi test well)/Pi positive control well*100%. The Inhibition %-[…] curve was fitted with Graphpad Prism 8 software, and IC50 was calculated.

[4] = biological target: T3, CYP2D6 (Homo sapiens, UniProt P10635); assay: CYP450 enzyme inhibition, human liver microsomes, CYP2D6; assay type: in vitro ADME
T3 construct: incubated with human liver microsomes and test compounds of different concentrations; from tissue; host or cells: human liver microsomes
Protocol: (§1) The purpose of this study was to evaluate the effect of the test compound on the activity of five isoenzymes (CYP1A2, CYP2C9, CYP2C19, CYP2D6 and CYP3A4) of human liver microsomal cytochrome P450 (CYP) by using an in vitro testing system. The specific probe substrates of CYP450 isoenzymes were incubated with human liver microsomes and test compounds of different concentrations, and reduced nicotinamide adenine dinucleotide phosphate (NADPH) was added to initiate the reaction. After the completion of the reaction, the sample was treated and liquid chromatography-tandem mass spectrometry (LC-MS/MS) was used to quantitatively detect metabolites produced by specific substrates, changes in CYP enzyme activity were determined, and IC50 value was calculated to evaluate the inhibitory potential of the test compound on each CYP enzyme subtype.

[5] = biological target: T4, CYP1A2 (Homo sapiens, UniProt P05177); assay: CYP450 enzyme inhibition, human liver microsomes, CYP1A2; assay type: in vitro ADME
T4 construct: incubated with human liver microsomes and test compounds of different concentrations; from tissue; host or cells: human liver microsomes
T4 sequence (P05177 1-516): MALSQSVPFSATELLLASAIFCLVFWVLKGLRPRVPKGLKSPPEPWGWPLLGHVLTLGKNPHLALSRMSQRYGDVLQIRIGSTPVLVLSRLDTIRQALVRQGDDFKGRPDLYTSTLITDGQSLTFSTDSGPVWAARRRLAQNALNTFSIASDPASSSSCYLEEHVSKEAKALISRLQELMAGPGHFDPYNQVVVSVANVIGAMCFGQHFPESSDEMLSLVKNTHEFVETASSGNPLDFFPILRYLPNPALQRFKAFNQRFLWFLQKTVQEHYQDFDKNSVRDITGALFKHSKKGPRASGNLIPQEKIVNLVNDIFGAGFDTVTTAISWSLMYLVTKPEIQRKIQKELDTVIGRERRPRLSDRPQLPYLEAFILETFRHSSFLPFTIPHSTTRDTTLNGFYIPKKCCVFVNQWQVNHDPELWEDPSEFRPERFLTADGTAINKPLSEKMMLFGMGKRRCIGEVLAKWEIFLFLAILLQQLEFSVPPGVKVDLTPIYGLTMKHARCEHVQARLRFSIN
Protocol: as §1

[6] = biological target: T5, CYP2C9 (Homo sapiens, UniProt P11712); assay: CYP450 enzyme inhibition, human liver microsomes, CYP2C9; assay type: in vitro ADME
T5 construct: incubated with human liver microsomes and test compounds of different concentrations; from tissue; host or cells: human liver microsomes
Protocol: as §1

[7] = biological target: T6, CYP3A4 (Homo sapiens, UniProt P08684); assay: CYP450 enzyme inhibition, human liver microsomes, CYP3A4; assay type: in vitro ADME
T6 construct: incubated with human liver microsomes and test compounds of different concentrations; from tissue; host or cells: human liver microsomes
Protocol: as §1

[8] = biological target: T7, CYP2C19 (Homo sapiens, UniProt P33261); assay: CYP450 enzyme inhibition, human liver microsomes, CYP2C19; assay type: in vitro ADME
T7 construct: incubated with human liver microsomes and test compounds of different concentrations; from tissue; host or cells: human liver microsomes
Protocol: as §1

[9] = Pharmacokinetic experiment in mouse muscle tissue (tibialis anterior / plasma); assay type: in vivo, C57 mice; conditions: male, C57, tibialis anterior muscle / plasma, oral, intragastric 10 mg/kg, read-out: Ratio = Tibialis anterior Conc./Plasma Conc.
Protocol: 1. Experimental animals: Male C57 mice, 22-25 g, 6 mice/compound. Purchased from Chengdu Ddossy Experimental Animals Co., Ltd.
2. Experimental design: On the day of the experiment, C57 mice were randomly grouped according to their body weight. The animals were fasted with water available for 12 to 14 h one day before the administration and were fed 4 h after the administration. Administration was performed as per Table 10.1.

[10] = inhibition of hydrolysis of ATP, class symbols, read-out: Rabbit skeletal muscle myosin (IC50)
[11] = read-out: IC50 for inhibition of hydrolysis of ATP by rabbit skeletal muscle myosin

T6 sequence (P08684 whole entry): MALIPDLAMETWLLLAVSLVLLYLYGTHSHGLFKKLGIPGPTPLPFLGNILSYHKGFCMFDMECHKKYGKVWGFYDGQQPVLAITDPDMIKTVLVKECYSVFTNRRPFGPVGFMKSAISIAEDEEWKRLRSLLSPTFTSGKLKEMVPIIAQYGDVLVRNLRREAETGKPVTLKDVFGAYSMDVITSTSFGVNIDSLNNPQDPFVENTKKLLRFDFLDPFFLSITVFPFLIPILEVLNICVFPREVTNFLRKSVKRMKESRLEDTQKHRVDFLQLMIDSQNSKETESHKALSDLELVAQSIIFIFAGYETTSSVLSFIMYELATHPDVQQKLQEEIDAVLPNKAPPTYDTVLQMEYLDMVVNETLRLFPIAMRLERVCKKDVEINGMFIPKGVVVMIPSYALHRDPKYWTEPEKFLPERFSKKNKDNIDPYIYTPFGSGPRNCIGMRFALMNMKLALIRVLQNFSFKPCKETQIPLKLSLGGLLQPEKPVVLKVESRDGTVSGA
T7 sequence (P33261 whole entry): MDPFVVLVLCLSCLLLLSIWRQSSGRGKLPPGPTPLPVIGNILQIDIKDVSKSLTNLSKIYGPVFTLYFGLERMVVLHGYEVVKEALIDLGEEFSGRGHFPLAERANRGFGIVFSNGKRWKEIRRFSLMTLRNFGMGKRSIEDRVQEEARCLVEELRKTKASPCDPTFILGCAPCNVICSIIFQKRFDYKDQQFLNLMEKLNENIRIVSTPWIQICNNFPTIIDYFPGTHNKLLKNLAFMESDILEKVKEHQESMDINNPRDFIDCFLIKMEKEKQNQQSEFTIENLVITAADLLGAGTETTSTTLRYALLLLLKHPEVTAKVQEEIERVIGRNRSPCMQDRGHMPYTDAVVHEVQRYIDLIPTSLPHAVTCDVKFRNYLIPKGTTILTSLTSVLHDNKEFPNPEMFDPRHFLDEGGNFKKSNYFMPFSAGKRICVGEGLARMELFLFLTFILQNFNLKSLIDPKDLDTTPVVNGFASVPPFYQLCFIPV
T3 sequence (P10635 whole entry): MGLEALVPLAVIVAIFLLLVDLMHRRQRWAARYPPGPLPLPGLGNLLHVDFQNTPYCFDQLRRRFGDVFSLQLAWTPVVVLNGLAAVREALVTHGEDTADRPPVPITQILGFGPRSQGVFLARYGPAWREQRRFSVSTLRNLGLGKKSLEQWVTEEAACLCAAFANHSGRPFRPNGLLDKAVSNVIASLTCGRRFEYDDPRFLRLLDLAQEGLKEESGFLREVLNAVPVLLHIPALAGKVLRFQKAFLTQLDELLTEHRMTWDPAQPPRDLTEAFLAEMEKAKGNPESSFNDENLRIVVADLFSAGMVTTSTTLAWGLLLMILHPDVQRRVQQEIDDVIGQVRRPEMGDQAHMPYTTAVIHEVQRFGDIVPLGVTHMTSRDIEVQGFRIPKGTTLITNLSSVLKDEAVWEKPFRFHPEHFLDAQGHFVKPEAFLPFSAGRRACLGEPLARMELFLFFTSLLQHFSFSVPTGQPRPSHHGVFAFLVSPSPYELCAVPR
T5 sequence (P11712 whole entry): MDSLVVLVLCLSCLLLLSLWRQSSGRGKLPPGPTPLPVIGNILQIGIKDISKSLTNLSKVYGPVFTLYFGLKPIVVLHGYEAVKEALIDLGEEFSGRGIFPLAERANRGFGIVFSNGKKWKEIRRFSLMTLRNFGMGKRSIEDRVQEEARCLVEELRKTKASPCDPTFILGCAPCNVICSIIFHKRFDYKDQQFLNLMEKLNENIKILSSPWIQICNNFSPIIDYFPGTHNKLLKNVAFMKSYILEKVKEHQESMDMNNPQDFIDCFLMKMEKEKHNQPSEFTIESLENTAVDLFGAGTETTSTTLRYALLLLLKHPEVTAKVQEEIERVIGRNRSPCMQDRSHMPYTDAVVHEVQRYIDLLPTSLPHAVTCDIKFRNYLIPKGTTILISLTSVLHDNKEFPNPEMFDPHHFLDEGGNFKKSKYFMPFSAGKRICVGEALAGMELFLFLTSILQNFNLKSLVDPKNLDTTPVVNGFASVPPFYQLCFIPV
T1 sequence (Q9BE39 whole entry): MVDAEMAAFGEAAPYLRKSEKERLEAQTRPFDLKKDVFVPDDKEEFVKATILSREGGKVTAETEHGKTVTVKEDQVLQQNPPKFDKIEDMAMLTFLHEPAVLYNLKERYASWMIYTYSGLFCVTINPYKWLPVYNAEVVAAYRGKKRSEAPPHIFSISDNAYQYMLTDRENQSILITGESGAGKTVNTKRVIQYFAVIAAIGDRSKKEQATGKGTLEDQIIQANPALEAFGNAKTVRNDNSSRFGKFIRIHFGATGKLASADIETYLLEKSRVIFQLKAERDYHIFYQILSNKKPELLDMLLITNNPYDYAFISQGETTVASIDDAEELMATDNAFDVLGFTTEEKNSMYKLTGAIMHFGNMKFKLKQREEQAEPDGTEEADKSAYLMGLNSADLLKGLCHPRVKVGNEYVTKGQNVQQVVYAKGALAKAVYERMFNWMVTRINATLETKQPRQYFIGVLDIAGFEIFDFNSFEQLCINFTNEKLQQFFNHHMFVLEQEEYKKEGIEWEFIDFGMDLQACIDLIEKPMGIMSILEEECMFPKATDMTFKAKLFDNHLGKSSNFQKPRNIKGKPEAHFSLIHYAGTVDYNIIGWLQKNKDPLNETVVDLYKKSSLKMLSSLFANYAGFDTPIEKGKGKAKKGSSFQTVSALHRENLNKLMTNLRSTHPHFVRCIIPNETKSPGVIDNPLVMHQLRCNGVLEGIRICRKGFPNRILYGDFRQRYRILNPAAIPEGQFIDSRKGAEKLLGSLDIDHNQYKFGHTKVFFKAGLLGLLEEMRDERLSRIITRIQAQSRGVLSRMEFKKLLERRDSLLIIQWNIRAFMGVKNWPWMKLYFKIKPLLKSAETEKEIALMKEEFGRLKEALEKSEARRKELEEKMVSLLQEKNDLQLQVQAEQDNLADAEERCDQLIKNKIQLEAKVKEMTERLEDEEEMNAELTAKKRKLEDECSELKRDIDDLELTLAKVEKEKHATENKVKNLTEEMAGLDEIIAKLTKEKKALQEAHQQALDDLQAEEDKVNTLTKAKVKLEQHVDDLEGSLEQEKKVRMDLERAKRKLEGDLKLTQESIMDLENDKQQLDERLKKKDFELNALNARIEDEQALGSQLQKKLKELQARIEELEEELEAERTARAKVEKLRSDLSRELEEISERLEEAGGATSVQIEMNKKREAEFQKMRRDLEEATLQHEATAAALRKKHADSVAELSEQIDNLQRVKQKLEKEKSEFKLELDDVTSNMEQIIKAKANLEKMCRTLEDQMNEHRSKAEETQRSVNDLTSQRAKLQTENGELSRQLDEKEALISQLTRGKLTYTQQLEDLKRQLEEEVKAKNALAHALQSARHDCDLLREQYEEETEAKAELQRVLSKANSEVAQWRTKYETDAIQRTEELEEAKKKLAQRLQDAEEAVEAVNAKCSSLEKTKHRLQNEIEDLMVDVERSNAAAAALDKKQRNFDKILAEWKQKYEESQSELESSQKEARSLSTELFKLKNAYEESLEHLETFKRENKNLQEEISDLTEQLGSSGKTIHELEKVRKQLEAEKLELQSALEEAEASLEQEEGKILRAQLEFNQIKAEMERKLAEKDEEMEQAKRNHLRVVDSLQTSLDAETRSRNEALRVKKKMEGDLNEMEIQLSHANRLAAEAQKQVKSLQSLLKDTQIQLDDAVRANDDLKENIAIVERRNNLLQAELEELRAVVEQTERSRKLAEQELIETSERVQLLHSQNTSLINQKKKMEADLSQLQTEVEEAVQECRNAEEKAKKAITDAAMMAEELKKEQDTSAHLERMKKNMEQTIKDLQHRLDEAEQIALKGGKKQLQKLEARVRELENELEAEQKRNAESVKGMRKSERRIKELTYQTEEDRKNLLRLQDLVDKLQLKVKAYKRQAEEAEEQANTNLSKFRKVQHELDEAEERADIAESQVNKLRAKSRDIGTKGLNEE
T1 sequence (P85100 whole entry partner): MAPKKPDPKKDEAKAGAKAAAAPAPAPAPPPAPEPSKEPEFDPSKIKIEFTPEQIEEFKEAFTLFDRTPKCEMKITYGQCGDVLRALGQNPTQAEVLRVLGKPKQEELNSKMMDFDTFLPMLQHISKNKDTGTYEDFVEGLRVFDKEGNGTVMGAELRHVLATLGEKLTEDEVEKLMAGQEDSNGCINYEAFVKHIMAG
T1 sequence (Q3SZE5 whole entry partner): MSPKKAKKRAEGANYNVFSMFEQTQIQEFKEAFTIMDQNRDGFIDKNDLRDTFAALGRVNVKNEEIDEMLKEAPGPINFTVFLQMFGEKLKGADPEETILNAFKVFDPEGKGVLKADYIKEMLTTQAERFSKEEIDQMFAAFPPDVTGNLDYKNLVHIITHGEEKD

Row | Compound | inhibition at 100 µM [1] | inhibition at 100 µM [2] | IC50 [3, 10] | IC50 [4] | IC50 [5] | IC50 [6] | IC50 [7] | IC50 [8] | IC50 [3, 11] | Kp at 6 h [9] | Kp at 24 h [9]
1 | O=C1CCc2c(Cl)cc(Cn3nc(-c4cnc(C5CC5)nc4)ccc3=O)cc21 [Compound 170] | – | – | < 2.5 µM | > 30 µM | > 30 µM | > 30 µM | > 30 µM | > 30 µM | 0.9 µM | – | –
2 | O=C1CCc2c(Cl)cc(Cn3nc(-c4cnc(O[C@@H]5CCOC5)nc4)ccc3=O)cc21 [Compound 171] | – | – | < 2.5 µM | > 30 µM | > 30 µM | > 30 µM | > 30 µM | > 30 µM | 0.9 µM | 90.1 | 161
3 | O=C1CCc2c(Cl)cc(Cn3nc(-c4cnc(O[C@H]5CCOC5)nc4)ccc3=O)cc21 [Compound 172] | – | – | < 2.5 µM | > 30 µM | > 30 µM | > 30 µM | > 30 µM | > 30 µM | 1 µM | 67 | 129
4 | O=C1CCc2c1cc(Cn1nc(-c3cnc(OCC(F)(F)F)nc3)ccc1=O)cc2C(F)F [Compound 176] | – | – | < 2.5 µM | > 30 µM | > 30 µM | > 30 µM | > 30 µM | > 30 µM | – | – | –

Second part, the compound after the results:

Row | inhibition at 100 µM [1] | inhibition at 100 µM [2] | IC50 [3, 10] | IC50 [4] | IC50 [5] | IC50 [6] | IC50 [7] | IC50 [8] | IC50 [3, 11] | Kp at 6 h [9] | Kp at 24 h [9] | Compound
5 | 17% | 6% | < 2.5 µM | – | – | – | – | – | – | – | – | O=C1CCc2c(Cl)cc(Cn3nc(-c4cnc(OCC(F)(F)F)nc4)ccc3=O)cc21 [Compound 166]
6 | – | – | < 2.5 µM | > 30 µM | > 30 µM | > 30 µM | > 30 µM | > 30 µM | 0.8 µM | – | – | Cc1cc(Cn2nc(-c3cnc(OCC(F)(F)F)nc3)ccc2=O)cc2c1CCC2=O [Compound 169]

Reference: patent US20260217683A1, “PYRIDAZINONE HETEROCYCLIC COMPOUND MYOSIN II INHIBITOR AND USE THEREOF” (Xizang Haisco Pharmaceutical Co., Ltd., priority 2023, published 2026)
